ChEMBL document CHEMBL5236615, “Discovery of Novel N-Heterocyclic-Fused Deoxypodophyllotoxin Analogues as Tubulin Polymerization Inhibitors Targeting the Colchicine-Binding Site for Cancer Treatment” (J Med Chem, 2022)
pIC50: −log10 of the molar value. The source made the active and inactive calls. The calls are words filed in the database; no cut-off is given here.

Columns and labels:
[1] = Cmax in Sprague-Dawley rat at 10 mg/kg, iv measured upto 8 hrs by LC/MS/MS analysis; type: ADME, organism-based; parameters: dose 10 mg/kg, time < 8 hrs, route iv; details: in vivo
MCF7 [2] = experiment: Induction of apoptosis in human MCF7 cells assessed as upregulation of p-Bim EL protein expression at 5 to 20 nM in presence of roscovitine measured after 24 hrs by Western blot analysis; type: functional, cell-based; details: dose 5-20 nM
[3] = Cardiotoxicity in Sprague-Dawley rat assessed as QTcf value at 10 to 60 mg/kg, iv measured upto 60 mins by electrocardiography; type: toxicity, organism-based; details: in vivo, 1 h, dose 10-60 mg/kg
[4] = Tmax in Sprague-Dawley rat at 10 mg/kg, iv measured upto 8 hrs by LC/MS/MS analysis; type: ADME, organism-based; details: in vivo
MCF7 [5] = experiment: Induction of apoptosis in human MCF7 cells assessed as upregulation of p-Bim L protein expression at 5 to 20 nM in presence of roscovitine measured after 24 hrs by Western blot analysis; type: functional, cell-based; details: dose 5-20 nM
[6] = Toxicity in Balb/c mouse assessed as pathological changes in blood alanine aminotransferase level at 20 mg/kg, ip administered for every 2 days for 14 days; type: organism-based; details: in vivo, 336 h, time 14 day
[7] = Antitumor activity against paclitaxel-resistant human MCF7/TxR cells xenografted in Balb/c mouse assessed as tumor growth inhibition at 5 mg/kg, ip administered for every 2 days for 21 days; type: functional; details: read-out: TGI
[8] = Toxicity in Balb/c mouse assessed as pathological changes in blood aspartate aminotransferase level at 20 mg/kg, ip administered for every 2 days for 14 days; type: organism-based; details: in vivo, 336 h, time 14 day
MCF7 [9] = experiment: Induction of cell cycle arrest in human MCF7 cells assessed as mitosis by measuring accumulation of histone H3 ser10 phosphorylation incubated for 24 hrs by immunofluorescence assay; type: functional, cell-based; details: dose 5-25 nM
MCF7 [10] = experiment: cells; details: Homo sapiens, MCF7, 72 h
Description: Antiproliferative activity against human MCF7 cells measured after 72 hrs by MTT assay

[11] = Volume of distribution at steady sate in Sprague-Dawley rat at 10 mg/kg, iv measured upto 8 hrs by LC/MS/MS analysis; type: ADME, organism-based; details: in vivo, read-out: Vdss
MCF7 [12] = experiment: Induction of cell cycle arrest in human MCF7 cells assessed as acetyl-alpha tubulin at 20 nM in presence of roscovitine measured after 24 hrs by Western blot analysis; type: functional, cell-based
[13] = Half life in Sprague-Dawley rat at 10 mg/kg, iv measured upto 8 hrs by LC/MS/MS analysis; type: ADME, organism-based; details: in vivo
MCF7 [14] = experiment: Antitumor activity against human MCF7 cells xenografted in Balb/c mouse assessed as decrease in Ki67-positive tumor cells in tumor at 20 mg/kg, ip administered for every 2 days for 21 days; type: functional, organism-based; details: time 2.0 day
HCT-116 = experiment: Antiproliferative activity against human HCT-116 cells measured after 72 hrs by MTT assay; type: functional, cell-based; details: HCT-116, 72 h
[15] = Cardiotoxicity in Sprague-Dawley rat assessed as Qt interval at 10 to 60 mg/kg, iv measured upto 60 mins by electrocardiography; type: toxicity, organism-based; details: in vivo, 1 h, dose 10-60 mg/kg
MCF7 [16] = experiment: Induction of cell cycle arrest in human MCF7 cells assessed as CI-PARP at 5 to 20 nM in presence of roscovitine measured after 24 hrs by Western blot analysis; type: functional, cell-based; details: dose 5-20 nM
[17] = Cardiotoxicity in Sprague-Dawley rat assessed as QT correction value at 10 to 60 mg/kg, iv measured upto 60 mins by electrocardiography; type: toxicity, organism-based; details: in vivo, 1 h, dose 10-60 mg/kg
[18] = Toxicity in Balb/c mouse xenografted with human MCF7 cells assessed as pathological changes in heart at 5 to 20 mg/kg, ip administered for every 2 days for 21 days by hematoxylin and eosin staining based analysis; type: organism-based; details: in vivo, 504 h, dose 5-20 mg/kg, time 21 day
MCF7 [19] = experiment: Induction of ROS generation in human MCF7 cells assessed as increase in intracellular ROS level measured after 12 hrs by DCFH-DA staining based assay; type: functional, cell-based; details: dose 5-20 nM
Tubulin = Tubulin (Sus scrofa, UniProt P02554+P02550); experiment: Inhibition of porcine brain tubulin assessed as changes in the fluorescence intensity measured for 60 mins by cell free tubulin polymerization assay
[20] = Antitumor activity against paclitaxel-resistant human MCF7/TxR cells xenografted in Balb/c mouse assessed as tumor growth inhibition at 20 mg/kg, ip administered for every 2 days for 21 days; type: functional; details: 504 h, time 21 day, read-out: TGI
[21] = Clearance in Sprague-Dawley rat at 10 mg/kg, iv measured upto 8 hrs by LC/MS/MS analysis; type: ADME, organism-based; details: in vivo
MCF7 [22] = experiment: Antitumor activity against human MCF7 cells xenografted in Balb/c mouse assessed as tumor growth inhibition at 20 mg/kg, ip administered for every 2 days for 21 days; type: functional; details: MCF7, 504 h, time 21 day, read-out: TGI
[23] = Toxicity in Balb/c mouse assessed as pathological changes in blood creatinine level at 20 mg/kg, ip administered for every 2 days for 14 days; type: organism-based; details: in vivo, 336 h, time 14 day
[24] = Metabolic stability in human liver microsomes assessed as intrinsic clearance at 1 uM by LC/MS analysis; type: ADME, Microsome; details: read-out: CLH
[25] = Cardiotoxicity in Sprague-Dawley rat assessed as RR interval at 10 to 60 mg/kg, iv measured upto 60 mins by electrocardiography; type: toxicity, organism-based; details: in vivo, 1 h, dose 10-60 mg/kg
MCF7 [26] = experiment: Induction of apoptosis in human MCF7 cells assessed as upregulation of p-Bim L protein expression at 5 to 20 nM measured after 24 hrs by Western blot analysis; type: functional, cell-based; details: dose 5-20 nM
[27] = Cardiotoxicity in Sprague-Dawley rat assessed as PR interval at 10 to 60 mg/kg, iv measured upto 60 mins by electrocardiography; type: toxicity, organism-based; details: in vivo, 1 h, dose 10-60 mg/kg
Tubulin (Homo sapiens) = Tubulin (Homo sapiens) (UniProt P68371+Q9H4B7+P0DPH7+P68366+Q13509+Q71U36+P04350+Q3ZCM7+P07437+P68363+Q9BQE3+Q6PEY2+Q13885+Q9BVA1+Q9BUF5); experiment: Disruption of microtubule network in human MCF7 cells assessed as broken microtubule filaments at 20 nM measured after 6 hrs by immunofluorescence assay; type: cell-based
[28] = AUC (0 to t) in Sprague-Dawley rat at 10 mg/kg, iv measured upto 8 hrs by LC/MS/MS analysis; type: ADME, organism-based; parameters: dose 10 mg/kg, time < 8 hrs, route iv; details: in vivo
[29] = Toxicity in Balb/c mouse xenografted with human MCF7 cells assessed as pathological changes in liver at 5 to 20 mg/kg, ip administered for every 2 days for 21 days by hematoxylin and eosin staining based analysis; type: organism-based; details: in vivo, 504 h, dose 5-20 mg/kg, time 21 day
MCF7 [30] = experiment: Antiproliferative activity against human MCF7 cells assessed as survival rate at 20 nM measured after 72 hrs by MTT assay relative to control; type: functional
[31] = Toxicity in Balb/c mouse assessed as pathological changes in blood urea nitrogen level at 20 mg/kg, ip administered for every 2 days for 14 days; type: organism-based; details: in vivo, 336 h, time 14 day
[32] = Toxicity in Balb/c mouse assessed as pathological changes in blood creatine kinase level at 20 mg/kg, ip administered for every 2 days for 14 days; type: organism-based; details: in vivo, 336 h, time 14 day
[33] = Antitumor activity against paclitaxel-resistant human MCF7/TxR cells xenografted in Balb/c mouse assessed as tumor growth inhibition at 10 mg/kg, ip administered for every 2 days for 21 days; type: functional; details: 504 h, time 21 day, read-out: TGI

COc1c(Cl)cc([C@@H]2c3cc4c(cc3C[C@H]3C(=O)NC(=O)N23)OCCO4)cc1Cl
Cmax [1]: 7291 ng/mL
Activity (MCF7 [2]): inactive
Activity [3]: Non-Toxic
Tmax [4]: 6.6 min
Activity (MCF7 [5]): inactive
Activity [6]: Non-Toxic
inhibition in vivo at 5 mg/kg [7]: 38.9%
Activity [8]: Non-Toxic
Activity (MCF7 [9]): Dose-Dependent Effect
pIC50 (MCF7 [10]): 8.04
Vd [11]: 6.99 L/kg
Activity (MCF7 [12]): Active
t1/2 [13]: 95.4 min
Activity (MCF7 [14]): Active
pIC50 (HCT-116): 8.06
Activity [15]: Non-Toxic
Activity (MCF7 [16]): inactive
Activity [17]: Non-Toxic
Activity [18]: Non-Toxic
Activity (MCF7 [19]): Dose-Dependent Effect
IC50 (Tubulin): 2520 nM
inhibition in vivo at 20 mg/kg [20]: 67.7%
CL [21]: 65 mL/min/kg
inhibition in vivo at 20 mg/kg (MCF7 [22]): 85.1%
Activity [23]: Non-Toxic
CLint scaled at 1 µM [24]: 66.7 mL/min/kg
Activity [25]: Non-Toxic
Activity (MCF7 [26]): Active
Activity [27]: Non-Toxic
Activity (Tubulin (Homo sapiens)): Active
AUCt [28]: 6530 ng·h/mL
Activity [29]: Non-Toxic
Activity (MCF7 [30]): 31.55%
Activity [31]: Non-Toxic
Activity [32]: Non-Toxic
inhibition in vivo at 10 mg/kg [33]: 49.2%

COc1c(Br)cc([C@@H]2c3cc4c(cc3C[C@H]3C(=O)NC(=O)N23)OCCO4)cc1Br
Activity (MCF7 [9]): Dose-Dependent Effect
pIC50 (MCF7 [10]): 8.46
Activity (MCF7 [14]): Active
pIC50 (HCT-116): 8.23
Activity [18]: Non-Toxic
Activity (MCF7 [19]): Dose-Dependent Effect
IC50 (Tubulin): 2310 nM
inhibition in vivo at 20 mg/kg (MCF7 [22]): 78.9%
CLint scaled at 1 µM [24]: 167 mL/min/kg
Activity (MCF7 [26]): Active
Activity [29]: Non-Toxic
